Laboratory results published in the supplement of paper PMC11451515.

System: NOMO1
Experiment: cell viability relative to DMSO control; higher = less cytotoxic
Conditions: 48 h
How it was run: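 Library compounds in DMSO were pin-dosed into 1536-well plates (5 μl) holding NOMO1 or SEM (500 cells/well) or P12-Ichikawa (1000 cells/well) leukemia cells, across an 11-point threefold series of 47 μM to 0.79 nM. Each cell line had been adapted for at least four passages in each medium. CellTiter-Glo One luminescence was read after 48 h at 37°C. Viability is the per-plate percentage relative to DMSO wells, with cell-free wells as background.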

[1] = RPMI 5 mM glucose + 10% FBS, 0.000781 µM
[2] = RPMI 5 mM glucose + 10% FBS, 0.00234 µM
[3] = RPMI 5 mM glucose + 10% FBS, 0.00702 µM
[4] = RPMI 5 mM glucose + 10% FBS, 0.0211 µM
[5] = RPMI 5 mM glucose + 10% FBS, 0.0632 µM
[6] = RPMI 5 mM glucose + 10% FBS, 0.19 µM
[7] = RPMI 5 mM glucose + 10% FBS, 0.569 µM
[8] = RPMI 5 mM glucose + 10% FBS, 1.71 µM
[9] = RPMI 5 mM glucose + 10% FBS, 5.12 µM
[10] = RPMI 5 mM glucose + 10% FBS, 15.4 µM
[11] = RPMI 5 mM glucose + 10% FBS, 46.1 µM
[12] = RPMI 5 mM glucose + 10% dialyzed FBS, 0.000781 µM
[13] = RPMI 5 mM glucose + 10% dialyzed FBS, 0.00234 µM
[14] = RPMI 5 mM glucose + 10% dialyzed FBS, 0.00702 µM
[15] = RPMI 5 mM glucose + 10% dialyzed FBS, 0.0211 µM
[16] = RPMI 5 mM glucose + 10% dialyzed FBS, 0.0632 µM
[17] = RPMI 5 mM glucose + 10% dialyzed FBS, 0.19 µM
[18] = RPMI 5 mM glucose + 10% dialyzed FBS, 0.569 µM
[19] = RPMI 5 mM glucose + 10% dialyzed FBS, 1.71 µM
[20] = RPMI 5 mM glucose + 10% dialyzed FBS, 5.12 µM
[21] = RPMI 5 mM glucose + 10% dialyzed FBS, 15.4 µM
[22] = RPMI 5 mM glucose + 10% dialyzed FBS, 46.1 µM
[23] = HPLM + 10% dialyzed FBS, 0.000781 µM
[24] = HPLM + 10% dialyzed FBS, 0.00234 µM
[25] = HPLM + 10% dialyzed FBS, 0.00702 µM
[26] = HPLM + 10% dialyzed FBS, 0.0211 µM
[27] = HPLM + 10% dialyzed FBS, 0.0632 µM
[28] = HPLM + 10% dialyzed FBS, 0.19 µM
[29] = HPLM + 10% dialyzed FBS, 0.569 µM
[30] = HPLM + 10% dialyzed FBS, 1.71 µM
[31] = HPLM + 10% dialyzed FBS, 5.12 µM
[32] = HPLM + 10% dialyzed FBS, 15.4 µM
[33] = HPLM + 10% dialyzed FBS, 46.1 µM

SMILES | cell viability [1] | cell viability [2] | cell viability [3] | cell viability [4] | cell viability [5] | cell viability [6] | cell viability [7] | cell viability [8] | cell viability [9] | cell viability [10] | cell viability [11] | cell viability [12] | cell viability [13] | cell viability [14] | cell viability [15] | cell viability [16] | cell viability [17] | cell viability [18] | cell viability [19] | cell viability [20] | cell viability [21] | cell viability [22] | cell viability [23] | cell viability [24] | cell viability [25] | cell viability [26] | cell viability [27] | cell viability [28] | cell viability [29] | cell viability [30] | cell viability [31] | cell viability [32] | cell viability [33]
C[C@]12CC[C@H]3[C@@H](CCC4=CC(=O)CC[C@@H]43)[C@@H]1CC[C@@H]2OC(=O)CCc1ccccc1 | 126% | 115% | 119% | 130% | 114% | 113% | 112% | 133% | 115% | 128% | 78% | 120% | 127% | 115% | 124% | 141% | 135% | 144% | 133% | 128% | 137% | 68.7% |  |  |  |  |  |  |  |  |  |  | 
Nc1ncnc2c1ncn2[C@@H]1O[C@H](CO)C[C@H]1O | 85.7% | 87% | 94.7% | 87.9% | 93% | 84.4% | 88% | 80.7% | 91.1% | 82.5% | 92.4% | 103% | 109% | 94.9% | 103% | 103% | 90.2% | 87.8% | 92.2% | 85.6% | 91.2% | 92.1% | 105% | 97.1% | 97.1% | 102% | 94.3% | 101% | 73% | 87.4% | 95.2% | 81.7% | 79.8%
CC1=CC(=CC(=C1C\C2=N\CCN2)C)C(C)(C)C | 99.3% | 98.7% | 92.9% | 100% | 114% | 96.3% | 98.4% | 91.1% | 69.5% | 51.5% | 43.9% | 86.8% | 106% | 101% | 100% | 109% | 99.8% | 116% | 78.9% | 49.1% | 56.8% | 50.7% | 91.4% | 115% | 107% | 129% | 104% | 109% | 108% | 87.7% | 57.4% | 34.2% | 35.9%
CCc1ccc(/C=C2/SC(=S)NC2=O)cc1 | 75.7% | 83.5% | 81.8% | 81.9% | 87.2% | 83.8% | 88.1% | 76.3% | 93.4% | 59.9% | 75% | 78.2% | 71.1% | 83.2% | 81.4% | 87.5% | 73.4% | 84.3% | 82.1% | 85.3% | 48.6% | 86.3% | 70.3% | 79.1% | 88% | 86% | 74.5% | 74.2% | 79.2% | 79.7% | 94.3% | 51.3% | 92.2%
CN1CC(=O)N2[C@H](c3ccc4c(c3)OCO4)c3[nH]c4ccccc4c3C[C@@H]2C1=O | 97.2% | 96.1% | 89.1% | 88.4% | 101% | 101% | 97% | 83.9% | 92.8% | 97.8% | 77% | 107% | 93.5% | 97.6% | 98.3% | 88.4% | 103% | 98.9% | 89% | 81.3% | 109% | 79.1% | 111% | 99.6% | 109% | 107% | 103% | 94.8% | 98.7% | 83.3% | 91.5% | 90.7% | 74.8%
Cc1cc2c(C(N)=O)cccc2n1-c1nc2c(c(NCc3ccccc3)n1)COCC2 | 89.3% | 106% | 92.9% | 87.8% | 99.8% | 98% | 81.6% | 44.1% | 3.08% | 3.4% | 3.91% | 92.9% | 90.3% | 92.4% | 92.8% | 91.2% | 100% | 73.3% | 20.6% | 3.21% | 2.75% | 2.84% | 117% | 124% | 101% | 108% | 114% | 103% | 85.5% | 25% | 4.02% | 3.66% | 3.75%
CNC(=O)c1ccc(Nc2cc(Nc3ccccc3[S+](=O)([O-])C(C)C)c3cc[nH]c3n2)nc1 | 98% | 100% | 101% | 103% | 102% | 106% | 108% | 102% | 49.2% | 51.9% | 25.1% | 89.1% | 99.1% | 101% | 106% | 102% | 102% | 109% | 95.7% | 57.2% | 56.7% | 34% | 98.4% | 105% | 111% | 105% | 116% | 102% | 108% | 91.7% | 77.6% | 70.6% | 31.7%
C=CC(=O)Nc1cc2c(Nc3ccc(F)c(Cl)c3)ncnc2cc1OCCCN1CCOCC1 | 123% | 119% | 126% | 124% | 128% | 108% | 104% | 110% | 103% | 88.2% | 94.3% | 116% | 111% | 117% | 108% | 120% | 109% | 105% | 101% | 80.5% | 73.4% | 90.4% | 111% | 127% | 121% | 132% | 114% | 104% | 108% | 105% | 76.5% | 59.1% | 72.7%
